Here are results for two molecules from US11225503B2, “Crystobactamides” (HELMHOLTZ-ZENTRUM FÜR INFEKTIONSFORSCHUNG GMBH, priority 2013, dated 2022).

The target in test [1] is T1, H. sapiens topoisomerase II (Homo sapiens, UniProt P11388).
T1 construct: purchased Inspiralis (Norwich, UK)
Put plainly: Topoisomerase II relaxation (inhibition) assay. To be noted: for IC50: H. sapiens Topoisomerase II inhibition assay, read-out: IC50. Format: biochemical. As for the experimental part:
The topo II reactions were titrated with varying concentrations of A-D and resolved by agarose gel electrophoresis. For IC50 determination the band intensity of the supercoiled plasmid was determined using Adobe Photoshop, plotted vs. [cystobactamide] and fitted using Hill's equation.
(§1) Following natural product concentrations were used in the assay:
(§2) Control reactions were: no enzyme and a standard reaction in presence of 5% (v/v) DMSO. All reaction samples were equilibrated for 10 minutes at room-temperature in the absence of DNA. Then the relaxed plasmid was added to start the reaction.
(§3) To determine IC50 values, the formation of supercoiled (gyrase) or relaxed (topoisomerase I, II IV) plasmid was quantified using Adobe Photoshop (Histogram mode). Plotting of these values versus the compound concentration yielded sigmoidal shaped curves, which were fitted using Hill's equation (Origin Pro 8.5). All determined IC50 values are the averages of three independent experiments.

The test system of test [2] is E. coli strain WT III (marR Δ74 bp). In words: Susceptibility of mutant E. coli strains, MIC. The note with it: Escherichia coli. It counts as cell-based. The gist of the method:
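Broth microdilution in Müller-Hinton broth (pH 7.4), inoculum 10^4-10^6 cfu/mL, compound serially diluted in duplicate. Plates shaken at 750 rpm, 30-37° C, 18-48 h. MIC taken as lowest concentration with no visible growth.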

The target of test [3] is T2, H. sapiens topoisomerase I (Homo sapiens, UniProt P11387).
T2 construct: purchased Inspiralis (Norwich, UK)
T2 sequence (P11387 1-765): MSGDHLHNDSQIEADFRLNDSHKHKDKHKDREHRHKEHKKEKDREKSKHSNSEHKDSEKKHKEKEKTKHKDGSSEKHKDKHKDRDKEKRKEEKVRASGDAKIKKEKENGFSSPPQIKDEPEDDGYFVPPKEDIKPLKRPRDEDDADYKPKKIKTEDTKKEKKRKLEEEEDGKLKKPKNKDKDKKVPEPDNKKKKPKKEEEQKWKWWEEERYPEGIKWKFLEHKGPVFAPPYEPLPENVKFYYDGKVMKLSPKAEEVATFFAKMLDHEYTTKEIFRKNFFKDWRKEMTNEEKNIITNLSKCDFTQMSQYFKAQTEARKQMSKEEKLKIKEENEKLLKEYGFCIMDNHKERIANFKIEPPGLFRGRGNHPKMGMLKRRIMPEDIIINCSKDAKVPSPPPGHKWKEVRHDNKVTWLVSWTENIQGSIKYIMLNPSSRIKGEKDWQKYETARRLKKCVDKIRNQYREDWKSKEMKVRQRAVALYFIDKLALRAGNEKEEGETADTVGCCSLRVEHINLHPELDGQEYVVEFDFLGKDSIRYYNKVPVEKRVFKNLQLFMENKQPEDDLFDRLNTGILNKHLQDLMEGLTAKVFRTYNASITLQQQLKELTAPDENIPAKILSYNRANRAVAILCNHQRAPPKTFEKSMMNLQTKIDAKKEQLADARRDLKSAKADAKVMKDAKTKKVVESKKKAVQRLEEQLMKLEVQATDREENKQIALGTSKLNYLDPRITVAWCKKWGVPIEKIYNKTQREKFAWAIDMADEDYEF
Put plainly: Topoisomerase I relaxation (inhibition) assay. It counts as biochemical. As for the experimental part: Aside the ATP-dependent type IIa topoisomerases like E. coli gyrase, topoIV and human topoII, the activity of cystobactamides on the ATP-independent human topoisomerase I was tested as well.
The topo I reactions were titrated with varying concentrations of A-D and resolved by agarose gel electrophoresis. For IC50 determination the band intensity of the supercoiled plasmid was determined using Adobe Photoshop, plotted vs. [cystobactamide] and fitted using Hill's equation.
as §1
Cystobactamide C: 300 μM; 30 μM; 3 μM
Control reactions were: no enzyme and a standard reaction in presence of 5% (v/v) DMSO. All reaction samples were equilibrated for 10 minutes at room-temperature in the absence of DNA. Then the relaxed plasmid was added to start the reaction
as §3

The next test addresses T3, E. coli gyrase (Escherichia coli, UniProt P0AES4+P0AES6).
T3 construct: purchased Inspiralis (Norwich, UK)
Put plainly: Gyrase supercoiling (inhibition) assay. It counts as biochemical. As for the experimental part: To test the anti-gyrase activity of cystobactamides, commercial E. coli gyrase supercoiling kits (Inspiralis) were used.
For IC50 determination the band intensity of the supercoiled plasmid was determined using Adobe Photoshop, plotted vs. [cystobactamide] and fitted using Hill's equation.
All natural products stock solutions and dilutions were prepared in 100% DMSO and added to the supercoiling reactions giving a final DMSO concentration of 5% (v/v).
as §1
Control reactions were: no enzyme and a standard reaction in presence of 5% (v/v) DMSO.
All reaction samples were equilibrated for 10 minutes at room-temperature in the absence of DNA. Then the relaxed plasmid was added to start the reaction.
To determine IC50 values, the formation of supercoiled (gyrase) or relaxed (topoisomerase I, II IV) plasmid was quantified using Adobe Photoshop (Histogram mode). […] All determined IC50 values are the averages of three independent experiments.

A further test addresses T4, E. coli topoisomerase IV (Escherichia coli, UniProt P0AFI2+P20083).
T4 construct: purchased Inspiralis (Norwich, UK)
Put plainly: Topoisomerase IV relaxation (inhibition) assay. It counts as biochemical. As for the experimental part:
Prokaryotic DNA gyrase and topoisomerase IV share a high degree of homology and gyrase inhibitors typically show a topoisomerase IV inhibitory activity.^8 To test the influence of the cystobactamides on topoisomerase IV a commercial E. coli topoisomerase IV kit (Inspiralis) was used.
The topo IV reactions were titrated with varying concentrations of A-D and resolved by agarose gel electrophoresis. For IC50 determination the band intensity of the supercoiled plasmid was determined using Adobe Photoshop, plotted vs. [cystobactamide] and fitted using Hill's equation.
as §1, §2, §3

Setting [4] is: IC50 in the Gyrase inhibition assay, table, averages of three independent experiments.
[5] abbreviates: apparent IC50, E. coli gyrase, E. coli gyrase 20.5 nM eq. 1 unit.

Converted amounts (≈) assume the structure as drawn. Like-named read-outs stand apart in the source and are kept apart here. A value given as a limit tells only on which side of the number the result lay.

T3 sequence (P0AES4 whole entry, one chain of several): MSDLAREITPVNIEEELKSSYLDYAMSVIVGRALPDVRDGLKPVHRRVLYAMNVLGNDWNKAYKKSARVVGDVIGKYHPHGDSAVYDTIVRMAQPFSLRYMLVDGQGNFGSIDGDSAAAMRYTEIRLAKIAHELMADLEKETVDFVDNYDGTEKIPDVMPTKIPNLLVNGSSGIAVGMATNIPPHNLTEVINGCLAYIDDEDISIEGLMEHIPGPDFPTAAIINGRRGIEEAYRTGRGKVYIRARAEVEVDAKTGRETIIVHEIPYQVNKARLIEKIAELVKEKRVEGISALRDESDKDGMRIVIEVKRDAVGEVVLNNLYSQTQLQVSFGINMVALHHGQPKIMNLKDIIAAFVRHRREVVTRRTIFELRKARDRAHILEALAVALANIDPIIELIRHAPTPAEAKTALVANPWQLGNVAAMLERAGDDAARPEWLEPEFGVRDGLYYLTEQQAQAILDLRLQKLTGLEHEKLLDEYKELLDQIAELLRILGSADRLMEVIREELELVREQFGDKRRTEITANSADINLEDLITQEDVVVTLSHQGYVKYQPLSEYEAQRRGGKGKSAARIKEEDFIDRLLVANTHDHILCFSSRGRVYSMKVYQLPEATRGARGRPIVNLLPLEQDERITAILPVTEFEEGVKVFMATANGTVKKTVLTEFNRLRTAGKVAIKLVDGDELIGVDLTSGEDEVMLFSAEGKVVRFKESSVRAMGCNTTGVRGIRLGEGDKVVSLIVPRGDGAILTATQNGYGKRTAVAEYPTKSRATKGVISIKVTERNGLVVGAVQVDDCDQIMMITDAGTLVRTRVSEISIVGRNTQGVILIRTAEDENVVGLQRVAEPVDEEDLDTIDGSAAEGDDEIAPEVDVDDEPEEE
T4 sequence (P20083 whole entry): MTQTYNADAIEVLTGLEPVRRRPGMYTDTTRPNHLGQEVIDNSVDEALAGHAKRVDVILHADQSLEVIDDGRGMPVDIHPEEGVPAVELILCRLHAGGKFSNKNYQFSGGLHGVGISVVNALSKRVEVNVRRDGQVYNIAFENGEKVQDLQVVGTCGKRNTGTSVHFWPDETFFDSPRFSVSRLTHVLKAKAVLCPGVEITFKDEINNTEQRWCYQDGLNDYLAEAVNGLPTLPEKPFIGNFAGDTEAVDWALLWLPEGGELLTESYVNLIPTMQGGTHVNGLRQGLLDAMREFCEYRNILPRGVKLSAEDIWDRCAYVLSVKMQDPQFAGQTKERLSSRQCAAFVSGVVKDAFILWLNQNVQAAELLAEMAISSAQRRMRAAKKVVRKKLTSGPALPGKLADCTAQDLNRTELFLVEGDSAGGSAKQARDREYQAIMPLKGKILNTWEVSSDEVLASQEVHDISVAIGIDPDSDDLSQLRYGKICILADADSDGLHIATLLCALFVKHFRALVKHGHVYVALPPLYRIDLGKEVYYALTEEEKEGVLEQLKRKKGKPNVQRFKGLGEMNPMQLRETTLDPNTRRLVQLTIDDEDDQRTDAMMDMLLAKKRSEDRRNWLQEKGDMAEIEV
T4 sequence (P0AFI2 whole entry): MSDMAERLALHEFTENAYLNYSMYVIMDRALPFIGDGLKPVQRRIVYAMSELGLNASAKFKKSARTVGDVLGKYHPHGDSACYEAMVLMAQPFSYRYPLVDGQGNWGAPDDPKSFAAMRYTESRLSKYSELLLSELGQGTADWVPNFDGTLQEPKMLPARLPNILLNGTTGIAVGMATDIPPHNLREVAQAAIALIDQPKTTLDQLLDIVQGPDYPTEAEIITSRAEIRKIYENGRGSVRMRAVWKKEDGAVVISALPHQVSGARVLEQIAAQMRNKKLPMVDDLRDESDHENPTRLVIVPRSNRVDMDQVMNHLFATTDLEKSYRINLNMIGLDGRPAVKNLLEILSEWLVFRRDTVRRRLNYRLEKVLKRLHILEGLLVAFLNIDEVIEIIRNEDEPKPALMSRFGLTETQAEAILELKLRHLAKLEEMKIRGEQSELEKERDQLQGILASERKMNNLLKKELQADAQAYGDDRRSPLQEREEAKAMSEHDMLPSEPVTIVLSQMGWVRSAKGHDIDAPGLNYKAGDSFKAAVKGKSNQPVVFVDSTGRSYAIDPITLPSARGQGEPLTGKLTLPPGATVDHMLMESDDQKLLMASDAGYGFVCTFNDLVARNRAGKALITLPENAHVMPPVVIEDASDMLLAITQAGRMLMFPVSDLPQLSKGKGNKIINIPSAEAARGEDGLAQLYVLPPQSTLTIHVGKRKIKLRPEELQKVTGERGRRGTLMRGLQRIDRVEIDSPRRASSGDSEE
T1 sequence (P11388 whole entry): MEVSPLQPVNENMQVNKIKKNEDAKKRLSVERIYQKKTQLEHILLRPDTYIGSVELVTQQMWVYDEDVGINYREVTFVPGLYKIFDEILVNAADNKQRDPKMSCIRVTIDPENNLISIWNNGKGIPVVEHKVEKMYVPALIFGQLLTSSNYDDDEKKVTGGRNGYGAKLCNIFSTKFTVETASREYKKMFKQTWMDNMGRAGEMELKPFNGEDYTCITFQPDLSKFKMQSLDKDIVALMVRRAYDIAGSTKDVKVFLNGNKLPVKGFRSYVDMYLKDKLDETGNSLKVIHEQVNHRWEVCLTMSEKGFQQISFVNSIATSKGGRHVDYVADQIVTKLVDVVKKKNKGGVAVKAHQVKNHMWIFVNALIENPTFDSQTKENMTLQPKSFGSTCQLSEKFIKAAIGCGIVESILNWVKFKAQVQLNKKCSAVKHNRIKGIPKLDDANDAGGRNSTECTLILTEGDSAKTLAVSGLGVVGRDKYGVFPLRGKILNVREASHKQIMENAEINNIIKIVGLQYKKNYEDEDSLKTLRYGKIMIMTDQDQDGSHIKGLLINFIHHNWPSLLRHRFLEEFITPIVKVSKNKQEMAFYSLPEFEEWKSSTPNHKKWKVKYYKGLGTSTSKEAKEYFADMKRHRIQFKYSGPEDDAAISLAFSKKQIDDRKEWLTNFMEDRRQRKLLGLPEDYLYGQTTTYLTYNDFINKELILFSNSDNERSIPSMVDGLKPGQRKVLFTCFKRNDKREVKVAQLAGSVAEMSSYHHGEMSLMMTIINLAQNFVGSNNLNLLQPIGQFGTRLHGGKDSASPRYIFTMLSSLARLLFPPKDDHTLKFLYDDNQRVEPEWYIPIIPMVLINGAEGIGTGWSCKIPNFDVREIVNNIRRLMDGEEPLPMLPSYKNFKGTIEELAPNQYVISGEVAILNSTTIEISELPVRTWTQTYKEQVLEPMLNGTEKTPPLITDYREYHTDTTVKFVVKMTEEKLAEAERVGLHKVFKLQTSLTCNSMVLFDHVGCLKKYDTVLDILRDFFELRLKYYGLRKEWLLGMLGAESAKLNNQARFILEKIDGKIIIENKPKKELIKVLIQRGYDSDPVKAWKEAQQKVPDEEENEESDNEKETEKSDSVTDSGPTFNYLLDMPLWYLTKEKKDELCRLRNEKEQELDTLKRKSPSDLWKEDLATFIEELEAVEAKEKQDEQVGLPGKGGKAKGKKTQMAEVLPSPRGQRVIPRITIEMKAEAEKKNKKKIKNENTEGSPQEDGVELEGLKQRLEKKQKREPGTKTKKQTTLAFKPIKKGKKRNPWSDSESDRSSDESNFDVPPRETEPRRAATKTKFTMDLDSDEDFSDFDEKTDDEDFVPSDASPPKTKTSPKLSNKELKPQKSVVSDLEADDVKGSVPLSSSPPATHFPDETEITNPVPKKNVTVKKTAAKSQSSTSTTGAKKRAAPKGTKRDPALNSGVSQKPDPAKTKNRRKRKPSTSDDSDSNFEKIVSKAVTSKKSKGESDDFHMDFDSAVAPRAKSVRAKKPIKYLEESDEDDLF

As for `CO[C@H](C(=O)Nc1ccc(C(=O)Nc2ccc(C(=O)Nc3ccc(C(=O)O)cc3OC(C)C)c(O)c2OC(C)C)cc1)[C@H](NC(=O)c1ccc(NC(=O)c2ccc([N+](=O)[O-])cc2)cc1)C(=O)O` [cystobactamide A, Cystobactamide A], the 50% inhibitory concentration (IC50) in test [1] was above 160 µM; in test [3], around 1 µM; on E. coli gyrase (IC50 gyrase, E. coli gyrase) it was 6 µM; against E. coli gyrase (setting [4]), 6 µM; on E. coli gyrase (setting [5]), 6 µM; on E. coli topoisomerase IV (IC50 Topo IV, E. coli topoisomerase IV), around 815 µM. The molecule further showed an IC50 against E. coli topoisomerase IV (IC50 in the E. coli Topoisomerase IV inhibition assay, averages of three independent experiments) above 160 µM. The “concentration at which human topo II activity was inhibited (only the highest tested concentration)” value in test [1] is 815 µM. Also, the MIC in test [2] came to 14.7 µg/mL (≈ 16 µM). Also, on E. coli topoisomerase IV, the “concentration at which E. coli topo IV activity was inhibited (only the highest tested concentration)” value worked out at 815 µM.
As for `CC(C)Oc1cc(C(=O)O)ccc1NC(=O)c1ccc(NC(=O)c2ccc(N)cc2)c(OC(C)C)c1O` [cystobactamide C, Cystobactamide C], the IC50 in test [1] is above 60 µM; in test [3], around 6 µM; on E. coli gyrase (IC50 gyrase, E. coli gyrase), 7.2 µM; on E. coli gyrase (setting [4]), 7.2 µM; on E. coli gyrase (setting [5]), 7.7 µM; on E. coli topoisomerase IV (E. coli topoisomerase IV, read-out: IC50 Topo IV) it was around 300 µM. In addition, the IC50 on E. coli topoisomerase IV (averages of three independent experiments, read-out: IC50 in the E. coli Topoisomerase IV inhibition assay) is above 60 µM. Further, the “concentration at which human topo II activity was inhibited (only the highest tested concentration)” value in test [1] is 300 µM. Also, the minimal inhibitory concentration (MIC) in test [2] is 65 µg/mL (≈ 128 µM). Besides, the “concentration at which E. coli topo IV activity was inhibited (only the highest tested concentration)” value at E. coli topoisomerase IV came to 300 µM. Also, on E. coli topoisomerase IV (topo IV vs. gyrase), the “ratios IC50(topo IV)/IC50(gyrase)” value is listed as around 42.

For orientation: IC50 means the concentration that inhibits the measured activity by half. Broadly, the MIC is the lowest concentration that inhibits growth of the organism.
